Data taken from article PMC4457528, “Identification of Novel Small Molecule Inhibitors of Oncogenic RET Kinase” (PLoS ONE, 2015).
Like-named read-outs stand apart in the source and are kept apart here.

Experiments:
Assay in all cases: KinomeScan kinase panel, single concentration 10 µM
Type in all cases: binding
KinomeScan kinase panel [1] = molecular target: T1, KinomeScan kinase panel (Homo sapiens, UniProt Q02763); conditions: read-out: score (%)
T1 construct: purchased DiscoveRx (KinomeScan)
T1 sequence (Q02763 23-1124): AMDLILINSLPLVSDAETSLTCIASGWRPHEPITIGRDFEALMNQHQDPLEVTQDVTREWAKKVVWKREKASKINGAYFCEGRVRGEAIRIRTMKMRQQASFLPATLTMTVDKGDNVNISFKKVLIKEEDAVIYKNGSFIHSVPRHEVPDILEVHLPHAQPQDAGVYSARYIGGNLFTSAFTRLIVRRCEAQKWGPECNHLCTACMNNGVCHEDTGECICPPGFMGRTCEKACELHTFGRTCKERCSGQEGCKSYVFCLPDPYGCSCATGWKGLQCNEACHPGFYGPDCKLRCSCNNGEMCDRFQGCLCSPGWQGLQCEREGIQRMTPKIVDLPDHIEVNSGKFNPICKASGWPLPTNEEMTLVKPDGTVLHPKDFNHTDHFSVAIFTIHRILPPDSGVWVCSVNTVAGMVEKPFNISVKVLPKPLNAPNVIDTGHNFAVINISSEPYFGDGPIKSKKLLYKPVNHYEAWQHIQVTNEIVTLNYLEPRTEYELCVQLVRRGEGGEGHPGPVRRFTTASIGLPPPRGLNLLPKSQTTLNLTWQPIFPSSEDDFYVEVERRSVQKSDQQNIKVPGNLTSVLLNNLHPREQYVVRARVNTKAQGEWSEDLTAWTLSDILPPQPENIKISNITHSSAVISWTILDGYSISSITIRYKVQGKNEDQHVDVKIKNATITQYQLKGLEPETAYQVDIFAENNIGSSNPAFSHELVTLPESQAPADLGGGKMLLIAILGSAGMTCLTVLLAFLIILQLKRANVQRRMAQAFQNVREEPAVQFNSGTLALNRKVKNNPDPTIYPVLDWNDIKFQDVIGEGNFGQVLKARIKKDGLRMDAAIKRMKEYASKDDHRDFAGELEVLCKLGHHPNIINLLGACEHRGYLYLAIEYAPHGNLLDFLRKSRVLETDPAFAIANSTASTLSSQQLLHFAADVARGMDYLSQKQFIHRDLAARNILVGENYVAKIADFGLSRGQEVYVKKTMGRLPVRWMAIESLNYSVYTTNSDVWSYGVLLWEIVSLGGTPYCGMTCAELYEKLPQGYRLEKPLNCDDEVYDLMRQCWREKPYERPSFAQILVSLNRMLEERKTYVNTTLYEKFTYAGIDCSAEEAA

KinomeScan kinase panel [2] = molecular target: T2, KinomeScan kinase panel (Homo sapiens, UniProt O43353); conditions: read-out: score (%)
T2 construct: purchased DiscoveRx (KinomeScan)
T2 sequence (O43353 whole entry): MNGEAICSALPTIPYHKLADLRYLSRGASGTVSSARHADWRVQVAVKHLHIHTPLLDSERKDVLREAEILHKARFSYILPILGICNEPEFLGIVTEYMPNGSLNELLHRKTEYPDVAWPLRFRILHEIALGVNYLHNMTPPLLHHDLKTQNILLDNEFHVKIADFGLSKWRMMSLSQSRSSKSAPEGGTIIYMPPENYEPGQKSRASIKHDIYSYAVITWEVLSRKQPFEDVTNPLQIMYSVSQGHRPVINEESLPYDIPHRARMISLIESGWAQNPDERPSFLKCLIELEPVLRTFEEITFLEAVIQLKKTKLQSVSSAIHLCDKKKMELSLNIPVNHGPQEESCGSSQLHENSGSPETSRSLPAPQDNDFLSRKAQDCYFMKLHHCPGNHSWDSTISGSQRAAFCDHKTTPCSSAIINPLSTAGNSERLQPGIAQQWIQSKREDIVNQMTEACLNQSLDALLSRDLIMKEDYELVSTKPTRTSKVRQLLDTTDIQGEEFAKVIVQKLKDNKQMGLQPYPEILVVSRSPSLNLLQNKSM

KinomeScan kinase panel [3] = molecular target: T3, KinomeScan kinase panel (Homo sapiens, UniProt P42681); conditions: kinase TXK; 10 µM; read-out: score (%)
T3 construct: purchased DiscoveRx (KinomeScan)
T3 sequence (P42681 1-527): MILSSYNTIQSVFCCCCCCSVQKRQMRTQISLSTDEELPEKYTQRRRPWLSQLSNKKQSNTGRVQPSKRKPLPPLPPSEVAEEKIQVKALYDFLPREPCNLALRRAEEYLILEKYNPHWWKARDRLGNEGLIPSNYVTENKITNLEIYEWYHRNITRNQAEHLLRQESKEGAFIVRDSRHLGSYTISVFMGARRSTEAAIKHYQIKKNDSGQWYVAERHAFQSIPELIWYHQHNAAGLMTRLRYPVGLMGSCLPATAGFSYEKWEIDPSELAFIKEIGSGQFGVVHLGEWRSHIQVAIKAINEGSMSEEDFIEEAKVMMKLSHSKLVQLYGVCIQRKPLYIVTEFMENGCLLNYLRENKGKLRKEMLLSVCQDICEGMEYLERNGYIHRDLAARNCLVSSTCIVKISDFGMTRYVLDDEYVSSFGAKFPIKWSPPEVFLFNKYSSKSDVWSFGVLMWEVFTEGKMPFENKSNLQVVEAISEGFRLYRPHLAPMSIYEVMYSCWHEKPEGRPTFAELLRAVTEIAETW

KinomeScan kinase panel [4] = molecular target: T4, KinomeScan kinase panel (Homo sapiens, UniProt P04626); conditions: ERBB2, 10 µM; read-out: score (%)
T4 construct: purchased DiscoveRx (KinomeScan)
T4 sequence (P04626 23-1255): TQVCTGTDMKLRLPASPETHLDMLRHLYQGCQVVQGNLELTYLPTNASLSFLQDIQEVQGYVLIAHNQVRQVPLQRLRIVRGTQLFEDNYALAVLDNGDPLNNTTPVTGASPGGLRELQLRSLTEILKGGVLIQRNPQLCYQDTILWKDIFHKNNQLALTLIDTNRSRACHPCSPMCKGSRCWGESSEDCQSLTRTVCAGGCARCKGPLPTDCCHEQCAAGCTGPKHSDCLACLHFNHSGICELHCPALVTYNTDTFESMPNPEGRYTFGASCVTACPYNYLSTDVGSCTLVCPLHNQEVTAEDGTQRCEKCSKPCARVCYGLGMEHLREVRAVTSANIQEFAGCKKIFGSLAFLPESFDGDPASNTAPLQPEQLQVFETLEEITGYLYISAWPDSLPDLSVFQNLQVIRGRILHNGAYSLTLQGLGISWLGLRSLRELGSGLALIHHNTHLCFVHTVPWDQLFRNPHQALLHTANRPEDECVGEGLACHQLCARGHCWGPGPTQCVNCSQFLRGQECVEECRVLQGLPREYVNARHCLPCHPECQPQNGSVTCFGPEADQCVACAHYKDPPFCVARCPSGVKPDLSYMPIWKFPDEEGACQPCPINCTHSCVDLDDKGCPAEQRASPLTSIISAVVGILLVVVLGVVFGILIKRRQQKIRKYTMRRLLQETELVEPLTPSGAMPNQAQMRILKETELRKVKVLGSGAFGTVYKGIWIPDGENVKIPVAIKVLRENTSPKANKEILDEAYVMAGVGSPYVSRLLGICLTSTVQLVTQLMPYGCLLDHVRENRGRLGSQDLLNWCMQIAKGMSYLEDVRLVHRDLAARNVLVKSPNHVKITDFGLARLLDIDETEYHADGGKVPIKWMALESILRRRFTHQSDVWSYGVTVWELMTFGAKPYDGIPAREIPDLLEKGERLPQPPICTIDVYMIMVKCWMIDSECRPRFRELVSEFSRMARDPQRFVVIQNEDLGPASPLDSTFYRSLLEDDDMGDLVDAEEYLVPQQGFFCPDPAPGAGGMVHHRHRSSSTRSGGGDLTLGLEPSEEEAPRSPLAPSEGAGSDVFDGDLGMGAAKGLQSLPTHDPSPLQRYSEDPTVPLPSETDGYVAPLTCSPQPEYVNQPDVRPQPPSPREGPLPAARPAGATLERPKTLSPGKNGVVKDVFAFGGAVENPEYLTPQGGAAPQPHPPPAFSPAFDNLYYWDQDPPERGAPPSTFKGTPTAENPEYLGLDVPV

KinomeScan kinase panel [5] = molecular target: T5, KinomeScan kinase panel (Homo sapiens, UniProt P53350); conditions: PLK1, 10 µM; read-out: score (%)
T5 construct: purchased DiscoveRx (KinomeScan)
T5 sequence (P53350 whole entry): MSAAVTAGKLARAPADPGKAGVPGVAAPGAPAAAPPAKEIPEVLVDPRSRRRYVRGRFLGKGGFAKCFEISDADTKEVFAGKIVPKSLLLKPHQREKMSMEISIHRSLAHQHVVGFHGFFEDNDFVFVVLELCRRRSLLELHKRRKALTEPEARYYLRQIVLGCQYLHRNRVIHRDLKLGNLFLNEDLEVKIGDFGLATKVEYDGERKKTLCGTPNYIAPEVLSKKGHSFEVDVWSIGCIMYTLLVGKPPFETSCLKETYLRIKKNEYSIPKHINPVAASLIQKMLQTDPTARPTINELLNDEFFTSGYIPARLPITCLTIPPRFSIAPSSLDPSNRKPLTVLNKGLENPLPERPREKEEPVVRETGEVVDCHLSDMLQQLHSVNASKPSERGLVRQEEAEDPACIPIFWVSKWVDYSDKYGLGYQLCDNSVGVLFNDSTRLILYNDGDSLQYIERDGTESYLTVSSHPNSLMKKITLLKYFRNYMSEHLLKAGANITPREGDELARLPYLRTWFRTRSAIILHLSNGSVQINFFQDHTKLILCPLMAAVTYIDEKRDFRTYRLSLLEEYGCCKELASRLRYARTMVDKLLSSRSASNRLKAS

KinomeScan kinase panel [6] = molecular target: T6, KinomeScan kinase panel (Homo sapiens, UniProt Q9HC98); conditions: NEK6, 10 µM; read-out: score (%)
T6 construct: purchased DiscoveRx (KinomeScan)
T6 sequence (Q9HC98 whole entry): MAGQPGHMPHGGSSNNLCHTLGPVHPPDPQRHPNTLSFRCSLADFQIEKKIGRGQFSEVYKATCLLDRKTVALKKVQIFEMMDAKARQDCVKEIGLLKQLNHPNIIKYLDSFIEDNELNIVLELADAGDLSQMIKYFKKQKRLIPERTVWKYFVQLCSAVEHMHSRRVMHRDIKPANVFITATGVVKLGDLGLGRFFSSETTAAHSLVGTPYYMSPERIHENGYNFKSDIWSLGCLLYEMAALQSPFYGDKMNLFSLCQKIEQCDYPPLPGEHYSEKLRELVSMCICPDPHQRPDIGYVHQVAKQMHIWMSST

KinomeScan kinase panel [7] = molecular target: T7, KinomeScan kinase panel (Homo sapiens, UniProt P36888, K663Q); conditions: FLT3(K663Q), 10 µM; read-out: score (%)
T7 construct: purchased DiscoveRx (KinomeScan)
T7 sequence (P36888 27-993 K663Q): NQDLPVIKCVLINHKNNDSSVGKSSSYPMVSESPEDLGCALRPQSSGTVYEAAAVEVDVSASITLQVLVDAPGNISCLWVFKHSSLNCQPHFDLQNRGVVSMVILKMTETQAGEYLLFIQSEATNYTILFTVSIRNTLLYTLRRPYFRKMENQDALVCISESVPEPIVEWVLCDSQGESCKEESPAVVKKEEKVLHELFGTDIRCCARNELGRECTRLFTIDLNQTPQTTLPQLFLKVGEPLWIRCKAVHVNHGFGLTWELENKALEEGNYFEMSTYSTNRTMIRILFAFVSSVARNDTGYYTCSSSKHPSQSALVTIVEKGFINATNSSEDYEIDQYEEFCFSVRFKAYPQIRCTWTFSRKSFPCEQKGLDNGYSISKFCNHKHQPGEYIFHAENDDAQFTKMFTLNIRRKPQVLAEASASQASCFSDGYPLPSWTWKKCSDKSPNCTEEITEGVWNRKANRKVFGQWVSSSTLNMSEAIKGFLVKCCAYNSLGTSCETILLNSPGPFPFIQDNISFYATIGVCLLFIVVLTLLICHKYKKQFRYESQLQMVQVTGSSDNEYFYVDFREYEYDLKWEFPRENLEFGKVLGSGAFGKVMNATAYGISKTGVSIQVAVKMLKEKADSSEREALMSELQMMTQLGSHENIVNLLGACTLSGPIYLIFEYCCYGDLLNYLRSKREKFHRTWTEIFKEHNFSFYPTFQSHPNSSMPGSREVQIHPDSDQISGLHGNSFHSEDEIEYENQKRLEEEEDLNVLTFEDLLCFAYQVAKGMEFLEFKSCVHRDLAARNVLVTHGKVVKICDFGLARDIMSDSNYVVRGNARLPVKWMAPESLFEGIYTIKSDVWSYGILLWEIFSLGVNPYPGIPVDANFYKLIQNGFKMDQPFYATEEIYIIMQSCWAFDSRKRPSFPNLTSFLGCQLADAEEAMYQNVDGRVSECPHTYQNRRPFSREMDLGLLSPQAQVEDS

KinomeScan kinase panel [8] = molecular target: T8, KinomeScan kinase panel (Homo sapiens, UniProt Q9UIK4); conditions: DAPK2, 10 µM; read-out: score (%)
T8 construct: purchased DiscoveRx (KinomeScan)
T8 sequence (Q9UIK4 whole entry): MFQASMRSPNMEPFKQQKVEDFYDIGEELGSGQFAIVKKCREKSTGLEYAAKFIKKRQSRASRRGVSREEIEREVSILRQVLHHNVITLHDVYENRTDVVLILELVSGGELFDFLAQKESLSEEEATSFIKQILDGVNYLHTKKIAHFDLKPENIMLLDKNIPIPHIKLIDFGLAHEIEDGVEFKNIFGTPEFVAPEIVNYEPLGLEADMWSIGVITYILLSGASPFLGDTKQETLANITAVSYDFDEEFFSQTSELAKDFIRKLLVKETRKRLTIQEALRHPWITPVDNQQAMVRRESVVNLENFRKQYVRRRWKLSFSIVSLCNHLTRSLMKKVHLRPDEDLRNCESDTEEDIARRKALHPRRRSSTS

KinomeScan kinase panel [9] = molecular target: T9, KinomeScan kinase panel (Homo sapiens, UniProt Q9Y463); conditions: DYRK1B, 10 µM; read-out: score (%)
T9 construct: purchased DiscoveRx (KinomeScan)
T9 sequence (Q9Y463 whole entry): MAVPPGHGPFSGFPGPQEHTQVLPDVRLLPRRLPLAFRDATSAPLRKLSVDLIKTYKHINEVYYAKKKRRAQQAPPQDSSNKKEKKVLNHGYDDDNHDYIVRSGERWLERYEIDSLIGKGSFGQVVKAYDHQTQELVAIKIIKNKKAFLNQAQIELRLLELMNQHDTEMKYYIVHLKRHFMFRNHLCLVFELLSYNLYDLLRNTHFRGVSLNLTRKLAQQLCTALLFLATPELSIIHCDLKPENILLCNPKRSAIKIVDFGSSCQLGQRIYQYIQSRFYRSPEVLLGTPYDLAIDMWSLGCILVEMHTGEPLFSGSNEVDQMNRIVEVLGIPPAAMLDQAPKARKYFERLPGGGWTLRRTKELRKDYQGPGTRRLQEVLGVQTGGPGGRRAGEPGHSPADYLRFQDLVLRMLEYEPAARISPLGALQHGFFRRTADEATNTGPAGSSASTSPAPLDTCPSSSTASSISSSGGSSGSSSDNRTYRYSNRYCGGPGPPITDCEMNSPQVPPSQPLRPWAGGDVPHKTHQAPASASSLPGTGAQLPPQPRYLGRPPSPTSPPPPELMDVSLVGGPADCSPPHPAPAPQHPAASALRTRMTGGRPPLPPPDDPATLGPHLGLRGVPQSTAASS

KinomeScan kinase panel [10] = molecular target: T10, KinomeScan kinase panel (Homo sapiens, UniProt Q59H18); conditions: 10 µM, read-out: score (%)
T10 construct: purchased DiscoveRx (KinomeScan)
T10 sequence (Q59H18 1-835): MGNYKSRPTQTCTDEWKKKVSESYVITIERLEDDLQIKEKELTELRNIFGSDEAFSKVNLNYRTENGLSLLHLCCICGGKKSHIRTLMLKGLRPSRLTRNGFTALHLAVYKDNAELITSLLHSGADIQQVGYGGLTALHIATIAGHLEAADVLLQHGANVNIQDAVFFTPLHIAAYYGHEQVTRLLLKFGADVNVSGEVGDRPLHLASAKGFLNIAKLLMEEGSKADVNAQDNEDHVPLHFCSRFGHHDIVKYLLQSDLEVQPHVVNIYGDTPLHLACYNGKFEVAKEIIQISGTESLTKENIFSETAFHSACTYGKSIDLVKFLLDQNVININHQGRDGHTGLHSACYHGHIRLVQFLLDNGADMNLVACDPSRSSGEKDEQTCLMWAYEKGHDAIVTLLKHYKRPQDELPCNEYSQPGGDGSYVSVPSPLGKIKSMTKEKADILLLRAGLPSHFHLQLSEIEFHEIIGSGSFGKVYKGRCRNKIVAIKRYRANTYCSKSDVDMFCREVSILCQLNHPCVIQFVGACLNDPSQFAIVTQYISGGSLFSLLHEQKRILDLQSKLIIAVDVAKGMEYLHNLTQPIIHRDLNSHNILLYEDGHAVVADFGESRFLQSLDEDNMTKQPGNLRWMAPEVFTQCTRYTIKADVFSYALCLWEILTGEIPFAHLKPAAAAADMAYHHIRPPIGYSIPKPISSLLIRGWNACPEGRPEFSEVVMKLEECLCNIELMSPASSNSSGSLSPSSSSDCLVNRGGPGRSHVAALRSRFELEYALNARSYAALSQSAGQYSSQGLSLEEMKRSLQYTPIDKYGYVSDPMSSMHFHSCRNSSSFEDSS

remaining binding at 10 µM (KinomeScan kinase panel [1]; TIE2, 10 µM) [%] | remaining binding at 10 µM (KinomeScan kinase panel [10]; TNNI3K) [%] | Compound | remaining binding at 10 µM (KinomeScan kinase panel [1]; kinase TIE2, 10 µM) [%] | remaining binding at 10 µM (KinomeScan kinase panel [2]; RIPK2, 10 µM) [%] | remaining binding at 10 µM (KinomeScan kinase panel [3]) [%] | remaining binding at 10 µM (KinomeScan kinase panel [4]) [%] | remaining binding at 10 µM (KinomeScan kinase panel [5]) [%] | remaining binding at 10 µM (KinomeScan kinase panel [6]) [%] | remaining binding at 10 µM (KinomeScan kinase panel [7]) [%] | remaining binding at 10 µM (KinomeScan kinase panel [8]) [%] | remaining binding at 10 µM (KinomeScan kinase panel [9]) [%] | remaining binding at 10 µM (KinomeScan kinase panel [10]; kinase TNNI3K) [%] | remaining binding at 10 µM (KinomeScan kinase panel [2]; kinase RIPK2, 10 µM) [%]
 |  | CCN1CCN(Cc2ccc(NC(=O)c3ccc(C)c(NC(=O)c4cncc(-c5cccs5)c4)c3)cc2C(F)(F)F)CC1 [ALW-II-41-27] | 0.45 | 3.1 | 1.8 | 11 | > 30 | > 30 | 1 | > 30 | 12 | 3.8 | 
0.1 | 0.9 | CCN1CCN(Cc2ccc(NC(=O)c3ccc(C)c(/C=C/c4cnc5[nH]ccc5c4Cl)c3)cc2C(F)(F)F)CC1 [HG-6-63-01, (E)-3-(2-(4-chloro-1H-pyrrolo[2,3-b]pyridin-5-yl)vinyl)-N-(4-((4-ethylpiperazin-1-yl)methyl)-3-(trifluoromethyl)phenyl)-4-methylbenzamide] |  | 1.6 | 0.9 | 21 | > 30 | > 30 | 0 | > 30 | 22 |  | 
 |  | CCN1CCN(Cc2ccc(NC(=O)c3ccc(C)c(C#Cc4cccnc4)c3)cc2C(F)(F)F)CC1 [XMD15-44] | 0.05 |  | 0.3 | 0.5 | 58 | 90 | 0 | > 30 | > 30 | 0 | 0.45
